# Data published in publication PMC4490784, “Compensatory induction of MYC expression by sustained CDK9 inhibition via a BRD4-dependent mechanism” (eLife, 2015).
# What was measured:
# Assay in all cases: KINOMEscan binding assay
# PIK3CA(H1047Y) = target: T1, PIK3CA(H1047Y) (Homo sapiens, UniProt P42336, H1047Y); settings: read-out: % Retention on Solid Support
# T1 construct: purchased DiscoveRx KINOMEscan
# How it was run: (§1)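 We profiled i-CDK9 by active-site-directed competitive binding, testing 1 µM and 10 µM against over 400 kinases.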
# FLT3(D835H) = target: T2, FLT3(D835H) (Homo sapiens, UniProt P36888, D835H); settings: read-out: % Retention on Solid Support
# T2 construct: purchased DiscoveRx KINOMEscan
# How it was run: as §1
# PIK3CA = target: T3, PIK3CA (Homo sapiens, UniProt P42336); settings: read-out: % Retention on Solid Support
# T3 construct: purchased DiscoveRx KINOMEscan
# How it was run: as §1
# ZAP70 = target: T4, ZAP70 (Homo sapiens, UniProt P43403); settings: read-out: % Retention on Solid Support
# T4 construct: purchased DiscoveRx KINOMEscan
# T4 sequence (P43403 1-619): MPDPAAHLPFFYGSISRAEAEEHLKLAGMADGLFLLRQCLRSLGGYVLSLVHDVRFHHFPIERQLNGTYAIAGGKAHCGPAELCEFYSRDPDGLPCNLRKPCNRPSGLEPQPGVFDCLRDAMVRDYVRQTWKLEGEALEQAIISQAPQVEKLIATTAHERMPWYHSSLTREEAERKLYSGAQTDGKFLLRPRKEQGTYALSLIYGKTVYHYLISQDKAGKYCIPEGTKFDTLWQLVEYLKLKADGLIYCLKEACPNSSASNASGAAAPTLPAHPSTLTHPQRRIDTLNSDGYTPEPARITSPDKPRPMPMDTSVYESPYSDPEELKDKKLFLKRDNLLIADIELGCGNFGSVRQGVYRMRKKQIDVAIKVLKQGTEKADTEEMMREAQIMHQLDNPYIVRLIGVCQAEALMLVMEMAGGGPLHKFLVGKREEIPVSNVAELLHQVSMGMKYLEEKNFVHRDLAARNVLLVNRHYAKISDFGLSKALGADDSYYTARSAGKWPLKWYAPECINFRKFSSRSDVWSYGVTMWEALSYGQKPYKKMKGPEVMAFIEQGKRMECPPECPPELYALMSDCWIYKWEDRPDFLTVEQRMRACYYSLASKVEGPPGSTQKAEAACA
# How it was run: as §1
# KIT(D816H) = target: T5, KIT(D816H) (Homo sapiens, UniProt P10721, D816H); settings: 1 µM i-CDK9; read-out: % Retention on Solid Support
# T5 construct: purchased DiscoveRx KINOMEscan
# How it was run: as §1
# [1] = target: T6, ABL1(Q252H)-nonphosphorylated (Homo sapiens, UniProt P00519, Q252H); settings: read-out: % Retention on Solid Support
# T6 construct: purchased DiscoveRx KINOMEscan
# How it was run: as §1
# [2] = target: T7, ABL1(T315I)-nonphosphorylated (Homo sapiens, UniProt P00519, T315I); settings: read-out: % Retention on Solid Support
# T7 construct: purchased DiscoveRx KINOMEscan
# How it was run: as §1
# AKT2 = target: T8, AKT2 (Homo sapiens, UniProt P31751); settings: read-out: % Retention on Solid Support
# T8 construct: purchased DiscoveRx KINOMEscan
# How it was run: as §1
# PIK3CA(E545A) = target: T9, PIK3CA(E545A) (Homo sapiens, UniProt P42336, E545A); settings: read-out: % Retention on Solid Support
# T9 construct: purchased DiscoveRx KINOMEscan
# How it was run: as §1
# HCK = target: T10, HCK (Homo sapiens, UniProt P08631); settings: read-out: % Retention on Solid Support
# T10 construct: purchased DiscoveRx KINOMEscan
# How it was run: as §1
# EGFR(L858R) = target: T11, EGFR(L858R) (Homo sapiens, UniProt P00533, L858R)
# T11 construct: purchased DiscoveRx KINOMEscan
# How it was run: as §1
# PHKG2 = target: T12, PHKG2 (Homo sapiens, UniProt P15735); settings: read-out: % Retention on Solid Support
# T12 construct: purchased DiscoveRx KINOMEscan
# How it was run: as §1
# RIPK2 = target: T13, RIPK2 (Homo sapiens, UniProt O43353); settings: read-out: % Retention on Solid Support
# T13 construct: purchased DiscoveRx KINOMEscan
# How it was run: as §1
# MAP3K1 = target: T14, MAP3K1 (Homo sapiens, UniProt Q13233); settings: read-out: % Retention on Solid Support
# T14 construct: purchased DiscoveRx KINOMEscan
# How it was run: as §1
# MELK = target: T15, MELK (Homo sapiens, UniProt Q14680); settings: read-out: % Retention on Solid Support
# T15 construct: purchased DiscoveRx KINOMEscan
# How it was run: as §1
# IRAK4 = IRAK4 (Homo sapiens, UniProt Q9NWZ3); settings: 1 µM i-CDK9
# How it was run: as §1
# CASK = target: T16, CASK (Homo sapiens, UniProt O14936); settings: 1 µM i-CDK9; read-out: % Retention on Solid Support
# T16 construct: purchased DiscoveRx KINOMEscan
# How it was run: as §1
# GSK3B = target: T17, GSK3B (Homo sapiens, UniProt P49841); settings: read-out: % Retention on Solid Support
# T17 construct: purchased DiscoveRx KINOMEscan
# How it was run: as §1
# [3] = target: T18, RPS6KA4(Kin.Dom.1-N-terminal) (Homo sapiens, UniProt O75676); settings: read-out: % Retention on Solid Support
# T18 construct: RPS6KA4(Kin.Dom.1-N-terminal); purchased DiscoveRx KINOMEscan
# How it was run: as §1
# T8 sequence (P31751 whole entry): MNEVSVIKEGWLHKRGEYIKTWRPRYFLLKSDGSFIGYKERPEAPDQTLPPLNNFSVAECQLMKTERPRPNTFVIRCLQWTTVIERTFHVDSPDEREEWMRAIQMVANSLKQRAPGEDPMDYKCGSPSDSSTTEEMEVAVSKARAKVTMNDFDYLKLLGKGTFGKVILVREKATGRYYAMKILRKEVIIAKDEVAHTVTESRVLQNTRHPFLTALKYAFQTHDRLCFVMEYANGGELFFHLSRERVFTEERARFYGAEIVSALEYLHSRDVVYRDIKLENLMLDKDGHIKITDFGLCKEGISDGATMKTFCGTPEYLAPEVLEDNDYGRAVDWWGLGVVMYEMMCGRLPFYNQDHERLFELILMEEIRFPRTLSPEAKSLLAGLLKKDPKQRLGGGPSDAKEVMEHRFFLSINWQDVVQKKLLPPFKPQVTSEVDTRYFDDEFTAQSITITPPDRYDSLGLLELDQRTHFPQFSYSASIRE
# T12 sequence (P15735 whole entry): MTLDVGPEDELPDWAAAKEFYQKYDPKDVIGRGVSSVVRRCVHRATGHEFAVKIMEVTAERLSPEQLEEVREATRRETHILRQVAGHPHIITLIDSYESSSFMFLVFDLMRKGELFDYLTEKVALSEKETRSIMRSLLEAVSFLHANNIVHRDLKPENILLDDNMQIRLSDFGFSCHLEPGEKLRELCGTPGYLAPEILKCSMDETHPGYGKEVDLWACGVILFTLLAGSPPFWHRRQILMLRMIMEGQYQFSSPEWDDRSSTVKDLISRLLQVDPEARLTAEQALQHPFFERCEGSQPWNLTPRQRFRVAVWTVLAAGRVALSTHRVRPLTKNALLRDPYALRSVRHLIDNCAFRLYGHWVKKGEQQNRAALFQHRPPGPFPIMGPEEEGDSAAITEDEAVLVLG
# T18 sequence (O75676 1-371 limits assumed): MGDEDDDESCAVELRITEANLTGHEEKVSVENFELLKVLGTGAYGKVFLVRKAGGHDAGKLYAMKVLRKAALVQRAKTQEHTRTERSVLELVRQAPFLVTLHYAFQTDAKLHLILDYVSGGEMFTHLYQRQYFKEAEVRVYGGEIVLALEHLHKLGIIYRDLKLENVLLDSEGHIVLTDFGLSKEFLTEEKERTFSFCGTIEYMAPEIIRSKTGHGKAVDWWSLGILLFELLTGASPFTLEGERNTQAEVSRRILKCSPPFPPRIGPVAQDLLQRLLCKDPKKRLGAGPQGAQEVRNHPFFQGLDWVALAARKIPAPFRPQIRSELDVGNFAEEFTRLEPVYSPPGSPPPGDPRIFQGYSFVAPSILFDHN
# T10 sequence (P08631 whole entry): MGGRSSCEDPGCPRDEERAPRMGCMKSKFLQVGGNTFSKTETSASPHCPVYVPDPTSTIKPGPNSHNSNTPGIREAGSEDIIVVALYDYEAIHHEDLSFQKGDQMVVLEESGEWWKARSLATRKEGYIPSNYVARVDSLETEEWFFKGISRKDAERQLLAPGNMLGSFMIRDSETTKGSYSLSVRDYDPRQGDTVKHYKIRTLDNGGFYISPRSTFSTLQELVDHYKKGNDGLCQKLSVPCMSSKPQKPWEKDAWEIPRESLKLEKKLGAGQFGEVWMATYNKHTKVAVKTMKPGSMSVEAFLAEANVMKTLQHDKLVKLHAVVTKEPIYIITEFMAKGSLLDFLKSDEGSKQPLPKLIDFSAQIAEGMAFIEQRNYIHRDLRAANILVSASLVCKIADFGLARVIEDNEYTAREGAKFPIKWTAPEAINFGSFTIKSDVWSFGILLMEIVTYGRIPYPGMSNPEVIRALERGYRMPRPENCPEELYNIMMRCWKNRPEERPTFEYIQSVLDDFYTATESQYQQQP
# T9 sequence (P42336 whole entry E545A): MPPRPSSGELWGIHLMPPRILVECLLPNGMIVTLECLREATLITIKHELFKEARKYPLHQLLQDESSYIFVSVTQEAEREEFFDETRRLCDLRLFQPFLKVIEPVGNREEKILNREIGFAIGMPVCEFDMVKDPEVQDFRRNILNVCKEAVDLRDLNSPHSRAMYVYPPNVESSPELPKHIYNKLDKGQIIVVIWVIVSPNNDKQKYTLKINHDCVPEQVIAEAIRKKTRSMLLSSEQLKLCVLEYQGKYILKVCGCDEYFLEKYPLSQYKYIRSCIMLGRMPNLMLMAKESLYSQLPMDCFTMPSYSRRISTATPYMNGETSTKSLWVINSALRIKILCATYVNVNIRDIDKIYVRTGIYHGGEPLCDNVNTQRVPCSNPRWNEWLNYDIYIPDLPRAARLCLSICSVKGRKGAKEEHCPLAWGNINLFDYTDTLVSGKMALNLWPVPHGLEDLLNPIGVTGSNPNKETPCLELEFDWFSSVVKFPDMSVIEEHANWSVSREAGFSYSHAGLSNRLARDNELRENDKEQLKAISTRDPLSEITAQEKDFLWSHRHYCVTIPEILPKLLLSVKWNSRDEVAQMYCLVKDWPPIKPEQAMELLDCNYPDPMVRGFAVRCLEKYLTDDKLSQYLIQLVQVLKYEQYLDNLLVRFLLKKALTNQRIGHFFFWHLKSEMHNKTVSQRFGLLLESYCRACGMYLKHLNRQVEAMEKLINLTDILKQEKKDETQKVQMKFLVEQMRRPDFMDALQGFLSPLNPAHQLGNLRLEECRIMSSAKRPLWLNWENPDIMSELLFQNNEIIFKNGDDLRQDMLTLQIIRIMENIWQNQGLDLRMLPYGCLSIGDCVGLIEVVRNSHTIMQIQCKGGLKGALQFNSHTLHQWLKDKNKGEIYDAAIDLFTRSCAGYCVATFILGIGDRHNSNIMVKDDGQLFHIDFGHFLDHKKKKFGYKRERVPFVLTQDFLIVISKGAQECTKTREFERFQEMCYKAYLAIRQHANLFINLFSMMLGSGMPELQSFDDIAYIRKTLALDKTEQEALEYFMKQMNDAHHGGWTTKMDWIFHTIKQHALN
# T3 sequence (P42336 whole entry): as the sequence (P42336 whole entry E545A) above, with A545E counted along it
# T13 sequence (O43353 whole entry): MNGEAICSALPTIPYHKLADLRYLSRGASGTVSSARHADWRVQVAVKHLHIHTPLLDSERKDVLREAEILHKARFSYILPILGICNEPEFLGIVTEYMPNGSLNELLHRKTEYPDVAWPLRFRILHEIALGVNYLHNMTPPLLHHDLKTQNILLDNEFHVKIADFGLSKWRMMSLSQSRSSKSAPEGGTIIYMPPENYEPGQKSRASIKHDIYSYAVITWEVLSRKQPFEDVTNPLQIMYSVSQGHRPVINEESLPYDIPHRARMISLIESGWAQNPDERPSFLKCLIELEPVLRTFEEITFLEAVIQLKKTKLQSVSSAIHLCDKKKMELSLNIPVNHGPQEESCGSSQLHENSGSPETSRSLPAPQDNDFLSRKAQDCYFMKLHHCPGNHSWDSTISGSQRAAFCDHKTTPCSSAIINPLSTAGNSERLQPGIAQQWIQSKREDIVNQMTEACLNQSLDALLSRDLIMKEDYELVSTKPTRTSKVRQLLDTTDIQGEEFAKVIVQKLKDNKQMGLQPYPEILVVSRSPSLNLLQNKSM
# T1 sequence (P42336 whole entry H1047Y): as the sequence (P42336 whole entry E545A) above, with A545E, H1047Y counted along it
# T15 sequence (Q14680 whole entry): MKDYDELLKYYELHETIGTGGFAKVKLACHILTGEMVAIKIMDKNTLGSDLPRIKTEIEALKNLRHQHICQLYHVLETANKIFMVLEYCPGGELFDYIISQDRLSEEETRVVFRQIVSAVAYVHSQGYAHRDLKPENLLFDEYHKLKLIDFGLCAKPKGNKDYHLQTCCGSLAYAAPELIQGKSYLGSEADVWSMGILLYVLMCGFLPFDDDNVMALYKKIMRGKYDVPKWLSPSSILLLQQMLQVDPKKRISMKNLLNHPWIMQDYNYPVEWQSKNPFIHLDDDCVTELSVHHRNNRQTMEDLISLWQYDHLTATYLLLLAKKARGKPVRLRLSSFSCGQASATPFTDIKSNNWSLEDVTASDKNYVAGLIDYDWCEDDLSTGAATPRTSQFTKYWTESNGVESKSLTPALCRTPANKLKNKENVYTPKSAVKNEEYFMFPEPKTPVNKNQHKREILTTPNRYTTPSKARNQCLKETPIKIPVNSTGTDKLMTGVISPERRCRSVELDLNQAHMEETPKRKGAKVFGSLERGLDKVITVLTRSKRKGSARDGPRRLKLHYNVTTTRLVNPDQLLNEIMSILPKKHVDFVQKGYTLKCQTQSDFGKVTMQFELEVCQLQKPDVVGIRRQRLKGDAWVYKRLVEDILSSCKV
# T17 sequence (P49841 whole entry): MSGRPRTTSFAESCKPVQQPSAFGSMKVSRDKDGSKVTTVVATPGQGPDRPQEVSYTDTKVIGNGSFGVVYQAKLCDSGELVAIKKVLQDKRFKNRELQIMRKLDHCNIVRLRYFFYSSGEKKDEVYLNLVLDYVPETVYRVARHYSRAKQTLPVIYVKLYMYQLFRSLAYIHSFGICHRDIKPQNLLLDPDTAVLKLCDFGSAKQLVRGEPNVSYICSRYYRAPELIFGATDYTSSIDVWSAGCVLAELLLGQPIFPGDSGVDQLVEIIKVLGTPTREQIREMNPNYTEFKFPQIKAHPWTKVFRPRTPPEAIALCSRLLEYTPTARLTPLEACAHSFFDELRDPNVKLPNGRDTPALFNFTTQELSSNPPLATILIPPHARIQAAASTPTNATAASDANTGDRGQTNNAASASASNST
# IRAK4, sequence (Q9NWZ3 whole entry): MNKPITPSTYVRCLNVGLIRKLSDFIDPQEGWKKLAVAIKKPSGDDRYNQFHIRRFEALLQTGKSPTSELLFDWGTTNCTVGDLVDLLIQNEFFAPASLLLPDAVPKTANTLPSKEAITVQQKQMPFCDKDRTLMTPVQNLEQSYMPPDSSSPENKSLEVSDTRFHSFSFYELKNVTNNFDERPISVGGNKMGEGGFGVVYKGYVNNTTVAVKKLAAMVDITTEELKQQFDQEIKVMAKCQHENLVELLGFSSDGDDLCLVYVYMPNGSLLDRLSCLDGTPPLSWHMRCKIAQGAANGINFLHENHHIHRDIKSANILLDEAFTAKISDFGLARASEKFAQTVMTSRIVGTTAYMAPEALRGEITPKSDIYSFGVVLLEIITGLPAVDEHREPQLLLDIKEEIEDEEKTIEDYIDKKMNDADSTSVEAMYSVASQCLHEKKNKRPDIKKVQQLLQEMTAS
compound,measurement,setting,value
"N[C@H]1CC[C@H](Nc2cc(-c3cccc(NCc4cccc(F)c4)n3)c(Cl)cn2)CC1 [i-CDK9, N2′-(trans-4-aminocyclohexyl)-5′-chloro-N6-(3-fluorobenzyl)-2,4′-bipyridine-2′,6-diamine]",remaining binding at 1 µM,PIK3CA(H1047Y); 1 µM i-CDK9,100%
same,remaining binding at 10 µM,PIK3CA(H1047Y); 10 µM i-CDK9,100%
same,remaining binding at 1 µM,FLT3(D835H); 1 µM i-CDK9,100%
same,remaining binding at 10 µM,FLT3(D835H); 10 µM i-CDK9,70%
same,remaining binding at 1 µM,PIK3CA; 1 µM i-CDK9,100%
same,remaining binding at 10 µM,PIK3CA; 10 µM i-CDK9,100%
same,remaining binding at 1 µM,ZAP70; 1 µM i-CDK9,1.6%
same,remaining binding at 10 µM,ZAP70; 10 µM i-CDK9,96%
same,remaining binding at 1 µM,KIT(D816H),100%
same,remaining binding at 1 µM,[1]; 1 µM i-CDK9,55%
same,remaining binding at 10 µM,[1]; 10 µM i-CDK9,91%
same,remaining binding at 1 µM,[2]; 1 µM i-CDK9,100%
same,remaining binding at 10 µM,[2]; 10 µM i-CDK9,83%
same,remaining binding at 1 µM,AKT2; 1 µM i-CDK9,89%
same,remaining binding at 10 µM,AKT2; 10 µM i-CDK9,77%
same,remaining binding at 1 µM,PIK3CA(E545A); 1 µM i-CDK9,100%
same,remaining binding at 10 µM,PIK3CA(E545A); 10 µM i-CDK9,100%
same,remaining binding at 1 µM,HCK; 1 µM i-CDK9,81%
same,remaining binding at 10 µM,HCK; 10 µM i-CDK9,100%
same,% Retention on Solid Support,EGFR(L858R); 1 µM i-CDK9,35%
same,% Retention on Solid Support,EGFR(L858R); 10 µM i-CDK9,100%
same,remaining binding at 1 µM,PHKG2; 1 µM i-CDK9,100%
same,remaining binding at 10 µM,PHKG2; 10 µM i-CDK9,72%
same,remaining binding at 1 µM,RIPK2; 1 µM i-CDK9,65%
same,remaining binding at 10 µM,RIPK2; 10 µM i-CDK9,77%
same,remaining binding at 1 µM,MAP3K1; 1 µM i-CDK9,93%
same,remaining binding at 10 µM,MAP3K1; 10 µM i-CDK9,100%
same,remaining binding at 1 µM,MELK; 1 µM i-CDK9,100%
same,remaining binding at 10 µM,MELK; 10 µM i-CDK9,95%
same,% Retention on Solid Support,IRAK4,93%
same,remaining binding at 1 µM,CASK,100%
same,remaining binding at 1 µM,GSK3B; 1 µM i-CDK9,79%
same,remaining binding at 10 µM,GSK3B; 10 µM i-CDK9,74%
same,remaining binding at 1 µM,[3]; 1 µM i-CDK9,48%
same,remaining binding at 10 µM,[3]; 10 µM i-CDK9,84%
